The AC50 is the concentration at which the activity in the assay is half-maximal. Lower therefore signals greater potency.

Experimental findings from ChEMBL document CHEMBL5291721, “A preclinical secondary pharmacology resource illuminates target-adverse drug reaction associations of marketed drugs” (Nat Commun, 2023) are described below.

In experiment [1] the target is Sodium-dependent noradrenaline transporter (Homo sapiens, UniProt P23975).
A further experiment addresses T1, Estrogen receptor (Homo sapiens, UniProt P03372).
T1 sequence (P03372 whole entry): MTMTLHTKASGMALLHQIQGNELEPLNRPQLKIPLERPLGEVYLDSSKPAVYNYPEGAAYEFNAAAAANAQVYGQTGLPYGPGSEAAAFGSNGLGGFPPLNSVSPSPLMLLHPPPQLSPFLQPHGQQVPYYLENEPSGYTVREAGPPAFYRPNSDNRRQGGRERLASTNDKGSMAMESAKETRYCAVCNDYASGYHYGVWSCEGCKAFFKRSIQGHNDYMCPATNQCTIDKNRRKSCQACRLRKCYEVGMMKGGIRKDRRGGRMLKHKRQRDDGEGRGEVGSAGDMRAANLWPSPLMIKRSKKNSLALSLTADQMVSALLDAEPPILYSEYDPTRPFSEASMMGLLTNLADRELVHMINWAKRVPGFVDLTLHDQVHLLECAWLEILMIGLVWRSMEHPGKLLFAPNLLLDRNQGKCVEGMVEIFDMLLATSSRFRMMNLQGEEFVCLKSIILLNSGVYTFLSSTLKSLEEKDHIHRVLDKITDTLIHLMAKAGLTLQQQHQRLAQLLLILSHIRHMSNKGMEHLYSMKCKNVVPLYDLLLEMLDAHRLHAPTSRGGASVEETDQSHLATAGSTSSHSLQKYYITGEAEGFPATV

For a further experiment, the target named is T2, Progesterone receptor (Homo sapiens, UniProt P06401).
T2 sequence (P06401 whole entry): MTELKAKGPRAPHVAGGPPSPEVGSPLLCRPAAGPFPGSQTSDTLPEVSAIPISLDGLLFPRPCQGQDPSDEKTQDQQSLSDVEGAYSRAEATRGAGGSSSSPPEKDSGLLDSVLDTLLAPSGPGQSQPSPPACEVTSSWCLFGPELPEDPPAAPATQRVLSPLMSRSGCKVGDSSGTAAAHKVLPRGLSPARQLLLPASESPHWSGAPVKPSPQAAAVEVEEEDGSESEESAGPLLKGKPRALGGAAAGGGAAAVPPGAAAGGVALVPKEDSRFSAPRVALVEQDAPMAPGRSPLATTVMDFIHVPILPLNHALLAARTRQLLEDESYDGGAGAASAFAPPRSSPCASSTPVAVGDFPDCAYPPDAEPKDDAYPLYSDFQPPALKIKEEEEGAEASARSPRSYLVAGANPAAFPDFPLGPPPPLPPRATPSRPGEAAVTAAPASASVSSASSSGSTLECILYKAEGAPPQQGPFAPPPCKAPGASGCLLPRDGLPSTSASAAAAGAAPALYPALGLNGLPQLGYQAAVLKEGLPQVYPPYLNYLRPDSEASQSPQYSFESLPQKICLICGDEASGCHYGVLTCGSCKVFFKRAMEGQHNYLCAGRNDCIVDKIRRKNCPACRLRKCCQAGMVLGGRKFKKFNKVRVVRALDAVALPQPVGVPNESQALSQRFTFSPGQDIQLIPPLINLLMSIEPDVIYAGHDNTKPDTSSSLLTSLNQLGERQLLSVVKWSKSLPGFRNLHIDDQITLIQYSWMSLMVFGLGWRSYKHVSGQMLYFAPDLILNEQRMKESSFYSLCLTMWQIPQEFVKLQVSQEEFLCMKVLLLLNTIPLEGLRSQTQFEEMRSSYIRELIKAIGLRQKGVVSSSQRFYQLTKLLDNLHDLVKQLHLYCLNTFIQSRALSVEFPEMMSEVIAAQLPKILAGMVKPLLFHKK

In experiment [2] the target is Prostaglandin G/H synthase 1 (Homo sapiens, UniProt P23219). Format: functional.
In experiment [3] the target is 3',5'-cyclic-AMP phosphodiesterase 4A (Homo sapiens, UniProt P27815). Format: functional.
The target in experiment [4] is T3, Amine oxidase [flavin-containing] A (Homo sapiens, UniProt P21397).
T3 sequence (P21397 whole entry): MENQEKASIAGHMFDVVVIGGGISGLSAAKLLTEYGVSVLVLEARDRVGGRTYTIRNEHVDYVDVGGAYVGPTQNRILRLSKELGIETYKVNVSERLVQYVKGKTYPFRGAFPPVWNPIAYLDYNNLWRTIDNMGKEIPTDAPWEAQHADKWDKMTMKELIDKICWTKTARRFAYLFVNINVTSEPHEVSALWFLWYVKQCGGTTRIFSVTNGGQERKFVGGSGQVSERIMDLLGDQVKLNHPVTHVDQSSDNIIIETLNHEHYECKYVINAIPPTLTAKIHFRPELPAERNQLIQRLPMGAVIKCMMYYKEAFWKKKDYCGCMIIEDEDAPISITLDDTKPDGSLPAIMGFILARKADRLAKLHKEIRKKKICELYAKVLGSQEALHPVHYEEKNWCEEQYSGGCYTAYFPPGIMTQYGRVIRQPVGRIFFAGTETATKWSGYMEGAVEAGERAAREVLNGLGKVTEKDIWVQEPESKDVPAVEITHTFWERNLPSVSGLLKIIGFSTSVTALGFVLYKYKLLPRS
Format: functional.

The target of experiment [5] is T4, Alpha-1A adrenergic receptor (Homo sapiens, UniProt P35348).
T4 sequence (P35348 whole entry): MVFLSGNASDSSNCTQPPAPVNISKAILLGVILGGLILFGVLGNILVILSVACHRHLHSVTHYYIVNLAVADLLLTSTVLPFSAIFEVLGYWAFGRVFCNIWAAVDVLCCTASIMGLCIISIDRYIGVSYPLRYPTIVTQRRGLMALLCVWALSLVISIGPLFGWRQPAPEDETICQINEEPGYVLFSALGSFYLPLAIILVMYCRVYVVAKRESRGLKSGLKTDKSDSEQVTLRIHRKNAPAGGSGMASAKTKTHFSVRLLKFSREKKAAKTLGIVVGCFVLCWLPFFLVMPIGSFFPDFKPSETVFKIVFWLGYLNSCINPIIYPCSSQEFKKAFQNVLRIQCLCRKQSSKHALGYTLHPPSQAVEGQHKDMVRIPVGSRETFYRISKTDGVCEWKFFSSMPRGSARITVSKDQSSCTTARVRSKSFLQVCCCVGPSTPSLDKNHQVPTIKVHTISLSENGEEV
The format is functional, cell-based.

Where only a bound is given, the exact number is not on record here.
Further: assay procedure not described here.

Sequence of Sodium-dependent noradrenaline transporter (P23975 whole entry): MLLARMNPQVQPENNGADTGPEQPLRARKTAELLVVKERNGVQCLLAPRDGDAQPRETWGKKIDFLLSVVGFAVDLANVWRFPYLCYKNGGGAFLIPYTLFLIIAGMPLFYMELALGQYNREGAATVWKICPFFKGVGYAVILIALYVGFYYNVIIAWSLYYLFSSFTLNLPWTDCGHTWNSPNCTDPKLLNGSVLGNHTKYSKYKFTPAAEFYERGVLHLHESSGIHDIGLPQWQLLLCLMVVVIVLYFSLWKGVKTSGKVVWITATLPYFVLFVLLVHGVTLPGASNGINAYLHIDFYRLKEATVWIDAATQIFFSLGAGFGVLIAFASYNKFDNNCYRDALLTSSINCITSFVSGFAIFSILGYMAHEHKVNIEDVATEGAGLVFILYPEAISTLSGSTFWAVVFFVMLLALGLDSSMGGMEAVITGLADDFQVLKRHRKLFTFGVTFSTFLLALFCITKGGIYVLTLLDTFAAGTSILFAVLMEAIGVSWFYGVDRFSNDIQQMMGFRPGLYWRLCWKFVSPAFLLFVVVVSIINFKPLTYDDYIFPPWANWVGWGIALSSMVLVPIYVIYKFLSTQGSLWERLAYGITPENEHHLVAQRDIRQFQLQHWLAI
Sequence of Prostaglandin G/H synthase 1 (P23219 whole entry): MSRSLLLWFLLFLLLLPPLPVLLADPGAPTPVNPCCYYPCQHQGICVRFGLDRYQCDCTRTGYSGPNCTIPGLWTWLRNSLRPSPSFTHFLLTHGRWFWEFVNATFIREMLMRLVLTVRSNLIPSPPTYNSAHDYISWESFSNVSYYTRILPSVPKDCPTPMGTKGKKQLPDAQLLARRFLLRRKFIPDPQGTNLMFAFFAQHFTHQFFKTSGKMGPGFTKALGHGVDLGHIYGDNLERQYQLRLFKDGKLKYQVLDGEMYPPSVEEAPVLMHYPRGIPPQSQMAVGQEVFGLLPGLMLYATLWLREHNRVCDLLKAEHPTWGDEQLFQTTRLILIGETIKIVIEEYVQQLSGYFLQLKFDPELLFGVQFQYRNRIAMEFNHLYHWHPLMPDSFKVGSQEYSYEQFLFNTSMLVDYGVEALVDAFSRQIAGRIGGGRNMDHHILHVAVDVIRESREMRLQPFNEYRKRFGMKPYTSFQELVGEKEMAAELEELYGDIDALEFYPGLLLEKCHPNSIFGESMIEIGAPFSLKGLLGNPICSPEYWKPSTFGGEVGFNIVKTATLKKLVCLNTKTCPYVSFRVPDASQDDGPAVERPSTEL
Sequence of 3',5'-cyclic-AMP phosphodiesterase 4A (P27815 whole entry): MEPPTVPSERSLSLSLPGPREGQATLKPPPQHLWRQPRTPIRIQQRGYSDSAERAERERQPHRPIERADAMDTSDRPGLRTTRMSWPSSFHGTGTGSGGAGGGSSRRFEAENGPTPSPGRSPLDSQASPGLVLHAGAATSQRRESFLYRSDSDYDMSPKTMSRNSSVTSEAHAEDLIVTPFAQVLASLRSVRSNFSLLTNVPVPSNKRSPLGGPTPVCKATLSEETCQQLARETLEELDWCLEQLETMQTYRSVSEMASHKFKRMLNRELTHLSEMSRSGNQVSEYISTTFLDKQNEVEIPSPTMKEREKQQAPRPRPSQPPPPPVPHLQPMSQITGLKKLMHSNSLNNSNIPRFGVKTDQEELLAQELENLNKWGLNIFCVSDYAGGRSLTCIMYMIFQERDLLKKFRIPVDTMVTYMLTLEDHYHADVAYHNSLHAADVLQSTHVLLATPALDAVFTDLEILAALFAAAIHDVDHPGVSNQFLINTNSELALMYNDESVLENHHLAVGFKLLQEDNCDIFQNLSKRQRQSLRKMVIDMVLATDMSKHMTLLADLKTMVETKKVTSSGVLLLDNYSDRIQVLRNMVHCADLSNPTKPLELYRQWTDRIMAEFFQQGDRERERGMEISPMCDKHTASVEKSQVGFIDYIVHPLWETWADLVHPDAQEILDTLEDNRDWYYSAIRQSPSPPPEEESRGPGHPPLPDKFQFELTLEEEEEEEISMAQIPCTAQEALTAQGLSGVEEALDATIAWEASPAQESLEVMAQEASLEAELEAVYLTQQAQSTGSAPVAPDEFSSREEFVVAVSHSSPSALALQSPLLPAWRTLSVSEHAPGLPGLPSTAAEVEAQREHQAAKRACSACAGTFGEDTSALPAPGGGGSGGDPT

On to `CCCCCCCC(=O)N[C@H](CN1CCCC1)[C@H](O)c1ccc2c(c1)OCCO2`, for which the AC50 in experiment [1] was above 30 µM; at Estrogen receptor, above 30 µM; on Progesterone receptor, above 30 µM; in experiment [2] it was 26.5 µM; in experiment [3], above 30 µM; in experiment [4], above 30 µM.
On to `CC(C1=C(CCN(C)C)Cc2ccccc21)c1ccccn1` (stereo not drawn), for which the AC50 is 11.9 µM in experiment [1]; above 30 µM at Progesterone receptor; 19.4 µM in experiment [2]; above 30 µM in experiment [3]; 8.8 µM in experiment [5]; above 30 µM in experiment [4].
For `CC(=O)OCC[N+](C)(C)C` [ACETYLCHOLINE], the half-maximal activity concentration (AC50) (in experiment [1]; on Progesterone receptor; in experiment [2]; in experiment [3]; in experiment [5]; in experiment [4]) was above 30 µM each time.
`C[C@H](N)C(=O)O` [ALANINE]: the AC50 (in experiment [1]; at Progesterone receptor; in experiment [2]; in experiment [3]; in experiment [5]; in experiment [4]) was above 30 µM in each case.
Take `O=C1c2c(O)cccc2Cc2cccc(O)c21` [ANTHRALIN]: the AC50 in experiment [1] is above 3 µM; at Progesterone receptor, above 30 µM; in experiment [2], 14 µM; in experiment [3], 0.262 µM; in experiment [5], above 30 µM; in experiment [4] it was above 30 µM.
On to `O=C(Nc1nc(-c2cc(Cl)cs2)c(N2CCN(C3CCCCC3)CC2)s1)c1cnc(N2CCC(C(=O)O)CC2)c(Cl)c1` [AVATROMBOPAG], for which the AC50 was above 30 µM in experiment [1]; above 30 µM at Estrogen receptor; above 30 µM on Progesterone receptor; 19.8 µM in experiment [2]; above 30 µM in experiment [3]; above 30 µM in experiment [4].
`C[C@@H](O)[C@H]1C(=O)N2C(C(=O)[O-])=C(SC3Cn4cnc[n+]4C3)[C@H](C)[C@H]12` (stereo partly drawn) [BIAPENEM]: the AC50 (in experiment [1]; at Progesterone receptor; in experiment [2]; in experiment [3]; in experiment [5]; in experiment [4]) was above 30 µM each time.
Turning to `CCCCOc1ccc(CC(=O)NO)cc1` [BUFEXAMAC], the AC50 in experiment [1] was above 30 µM; at Progesterone receptor, above 30 µM; in experiment [2], above 30 µM; in experiment [3], 0.53 µM; in experiment [5], above 30 µM; in experiment [4], above 30 µM.
As to `CO[C@@]1(NC(=O)CSCC#N)C(=O)N2C(C(=O)O)=C(CSc3nnnn3C)CS[C@@H]21` [CEFMETAZOLE], the AC50 (in experiment [1]; at Estrogen receptor; at Progesterone receptor; in experiment [2]; in experiment [3]; in experiment [4]) was above 30 µM each time.
Consider `Oc1c(I)cc(Cl)c2cccnc12` [CLIOQUINOL], for which the AC50 is 2.79 µM in experiment [1]; above 30 µM at Progesterone receptor; above 30 µM in experiment [2]; above 30 µM in experiment [3]; above 30 µM in experiment [4].
As to `Cc1onc(-c2c(Cl)cccc2Cl)c1C(=O)N[C@@H]1C(=O)N2[C@@H]1SC(C)(C)[C@@H]2C(=O)O` [DICLOXACILLIN], the AC50 (in experiment [1]; at Progesterone receptor; in experiment [2]; in experiment [3]; in experiment [5]; in experiment [4]) was above 30 µM each time.
Regarding `CCCCC/C=C\C/C=C\C/C=C\CCCCC(=O)O` [GAMOLENIC ACID], the AC50 in experiment [1] is above 30 µM; on Progesterone receptor, above 30 µM; in experiment [2] it was 11.6 µM; in experiment [3], above 30 µM; in experiment [5], above 30 µM; in experiment [4], above 30 µM.
For the compound `CC(N)CCCC(C)(C)O` (stereo not drawn) [HEPTAMINOL], the AC50 (in experiment [1]; at Progesterone receptor; in experiment [2]; in experiment [3]; in experiment [5]; in experiment [4]) was above 30 µM each time.
Turning to `Cc1cc(CCN2CCN(c3cccc(Cl)c3)CC2)n[nH]1` [MEPIPRAZOLE], the AC50 (in experiment [1]; at Estrogen receptor; on Progesterone receptor; in experiment [2]; in experiment [3]; in experiment [4]) was above 30 µM in each case.
For the compound `CC[N+](C)(CC)CCOC(=O)C1c2ccccc2Oc2ccccc21` [METHANTHELINE], the AC50 (in experiment [1]; on Progesterone receptor; in experiment [2]; in experiment [3]; in experiment [5]; in experiment [4]) was above 30 µM in each case.
With `CCC(=O)O[C@@H]1CC(=O)O[C@H](C)C/C=C/C=C/[C@H](OC(C)=O)[C@H](C)C[C@H](CC=O)[C@H](O[C@@H]2O[C@H](C)[C@@H](O[C@H]3C[C@@](C)(OC(C)=O)[C@@H](OC(=O)CC)[C@H](C)O3)[C@H](N(C)C)[C@H]2O)[C@H]1OC` [MIOCAMYCIN], the AC50 (in experiment [1]; on Estrogen receptor; on Progesterone receptor; in experiment [2]; in experiment [3]; in experiment [4]) was above 30 µM each time.
For `CCN(CC)CCOC(=O)C(Cc1cccc2ccccc12)CC1CCCO1` (stereo not drawn) [NAFRONYL], the AC50 (in experiment [1]; at Progesterone receptor; in experiment [2]; in experiment [3]; in experiment [5]; in experiment [4]) was above 30 µM throughout.
In the case of `COCCCOc1ccnc(C[S+]([O-])c2nc3ccccc3[nH]2)c1C` (stereo not drawn) [RABEPRAZOLE], the AC50 in experiment [1] was 17.9 µM; on Progesterone receptor, above 30 µM; in experiment [2], 25.4 µM; in experiment [3], above 30 µM; in experiment [5], above 30 µM; in experiment [4], above 30 µM.
As to `O=C(CCCN1CCC2(CC1)C(=O)NCN2c1ccccc1)c1ccc(F)cc1` [SPIPERONE], the activity in experiment [5] was half-maximal at 0.081 µM (AC50).
